Assays:
[1] = molecular target: hGYS1 enzyme (recombinant hGYS1/GN1 protein) (Homo sapiens (Human), UniProt P13807); assay: GYS1 coupled enzyme assay (PK/LDH); format: biochemical; settings: hGYS1/GN1 50 nM, UDP-Glucose 0.8 mM, G6P 1 mM; geometric mean of at least 2 runs
[2] = system: hGYS1 enzyme / glycogen synthesis in HeLa cells; assay: GYS1 cell based assay (glycogen synthesis, Glucose-glo); design: species or system human; settings: Homo sapiens, HeLa, 24 h, 24 h incubation, 20 mM glucose, geometric mean of at least 2 runs
Outline: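 HeLa cells starved 24 h in medium containing only 1× Glutamax were plated onto compound in medium with 20 mM glucose (1% DMSO final) for 24 h, 37 °C, 5% CO2. Acid lysates were Tris-quenched, glucoamylase-digested (pH 5.3, 1 h, 37 °C) and read by Glucose-glo luminescence. IC50 came from Hill fits, as geometric mean of ≥2 runs.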

[3] = molecular target: hGYS2 enzyme (recombinant hGYS2/GN1 protein) (Homo sapiens (Human), UniProt P54840); assay: GYS2 coupled enzyme assay (PK/LDH); format: biochemical; settings: geometric mean of at least 2 assay runs on separate days, read-out: Avg_IC50
Outline: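 Continuous PK/LDH-coupled readout of NADH loss at 340 nm over 10 min, with 200 nM hGYS2/GN1 and 2 mM each of UDP-glucose, glucose-6-phosphate and PEP, in 50 mM Tris pH 7.5 with 0.2% glycogen and 2.5% DMSO. Slopes were normalized to controls and IC50s fit to a Hill curve from duplicates.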

hGYS1 enzyme (recombinant hGYS1/GN1 protein), sequence (P13807 whole entry): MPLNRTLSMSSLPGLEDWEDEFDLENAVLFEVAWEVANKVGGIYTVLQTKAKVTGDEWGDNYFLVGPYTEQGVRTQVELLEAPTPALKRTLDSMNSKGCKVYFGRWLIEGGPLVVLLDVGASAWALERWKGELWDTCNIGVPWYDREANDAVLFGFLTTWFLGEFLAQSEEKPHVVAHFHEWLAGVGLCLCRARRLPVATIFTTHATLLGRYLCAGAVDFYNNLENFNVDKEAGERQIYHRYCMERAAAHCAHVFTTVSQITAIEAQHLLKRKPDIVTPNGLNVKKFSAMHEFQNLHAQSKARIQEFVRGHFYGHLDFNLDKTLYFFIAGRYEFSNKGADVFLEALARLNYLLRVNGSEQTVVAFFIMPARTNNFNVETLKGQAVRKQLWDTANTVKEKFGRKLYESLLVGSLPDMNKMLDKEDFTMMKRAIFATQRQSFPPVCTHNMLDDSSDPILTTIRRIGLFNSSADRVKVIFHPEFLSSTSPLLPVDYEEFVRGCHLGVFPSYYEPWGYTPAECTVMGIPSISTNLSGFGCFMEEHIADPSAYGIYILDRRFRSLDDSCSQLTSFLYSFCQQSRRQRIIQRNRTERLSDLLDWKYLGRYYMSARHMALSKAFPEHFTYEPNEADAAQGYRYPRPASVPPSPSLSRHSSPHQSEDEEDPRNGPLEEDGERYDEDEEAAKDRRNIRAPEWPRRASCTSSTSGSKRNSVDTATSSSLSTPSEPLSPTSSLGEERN
hGYS1 enzyme (recombinant hGYS1/GN1 protein), sequence (P46976 whole entry partner): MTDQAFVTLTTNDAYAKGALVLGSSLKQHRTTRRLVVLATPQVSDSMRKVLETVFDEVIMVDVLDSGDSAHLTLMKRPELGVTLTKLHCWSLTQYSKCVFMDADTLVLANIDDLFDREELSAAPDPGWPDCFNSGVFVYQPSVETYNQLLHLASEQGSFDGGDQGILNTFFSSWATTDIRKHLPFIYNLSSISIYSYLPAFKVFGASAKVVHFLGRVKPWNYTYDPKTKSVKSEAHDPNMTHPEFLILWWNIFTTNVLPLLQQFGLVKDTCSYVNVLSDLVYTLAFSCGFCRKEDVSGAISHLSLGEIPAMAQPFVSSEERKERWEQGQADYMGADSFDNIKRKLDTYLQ
hGYS2 enzyme (recombinant hGYS2/GN1 protein), sequence (P54840 whole entry): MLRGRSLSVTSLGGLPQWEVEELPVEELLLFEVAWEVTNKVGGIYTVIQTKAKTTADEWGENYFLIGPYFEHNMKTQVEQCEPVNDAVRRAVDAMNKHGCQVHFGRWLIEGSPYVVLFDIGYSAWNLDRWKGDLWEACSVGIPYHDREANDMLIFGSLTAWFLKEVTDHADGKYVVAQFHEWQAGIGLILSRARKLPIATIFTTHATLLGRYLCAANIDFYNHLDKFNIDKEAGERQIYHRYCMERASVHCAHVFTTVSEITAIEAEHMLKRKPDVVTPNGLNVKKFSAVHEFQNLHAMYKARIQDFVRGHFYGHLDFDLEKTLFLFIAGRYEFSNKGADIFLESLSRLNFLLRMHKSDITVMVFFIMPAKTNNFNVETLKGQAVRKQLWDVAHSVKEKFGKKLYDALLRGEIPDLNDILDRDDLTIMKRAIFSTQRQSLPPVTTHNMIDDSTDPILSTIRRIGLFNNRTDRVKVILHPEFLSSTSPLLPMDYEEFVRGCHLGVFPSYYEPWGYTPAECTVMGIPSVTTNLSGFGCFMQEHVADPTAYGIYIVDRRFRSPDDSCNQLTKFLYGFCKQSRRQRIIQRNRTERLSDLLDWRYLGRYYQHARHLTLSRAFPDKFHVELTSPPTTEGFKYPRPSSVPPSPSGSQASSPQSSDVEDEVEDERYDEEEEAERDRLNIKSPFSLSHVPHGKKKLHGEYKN
hGYS2 enzyme (recombinant hGYS2/GN1 protein), sequence (P46976 whole entry partner): as the sequence (P46976 whole entry partner) above

| Compound | IC50 [1] [µM] | IC50 [2] [µM] | IC50 [3] [µM] |
| --- | --- | --- | --- |
| CC(=O)N(CCC(=O)N1C[C@H](F)C[C@H]1C(=O)N[C@@H](c1ccccc1)c1ccc(C(C)C)cc1)c1ccn(C)n1 [Compound 2, (2S,4R)-4-fluoro-1-{3-[N-(1-methyl-1H-pyrazol-3-yl)acetamido)propanoyl}-N-[(S)-phenyl[4-(propan-2-yl)phenyl]methyl]pyrrolidine-2-carboxamide] | 0.059 | 1.09 | > 100 |
| O=C(N[C@@H](c1ccccc1)c1ccc(C2CC2)c(F)c1)[C@@H]1C[C@@H](F)CN1C(=O)CNC(=O)N1CCN(CC2CC2)CC1 [Compound 490, N-{2-[(2S,4R)-2-{[(S)-(4-cyclopropyl-3-fluorophenyl)(phenyl)methyl]carbamoyl}-4-fluoropyrrolidin-1-yl]-2-oxoethyl}-4-(cyclopropylmethyl) piperazine-1-carboxamide] | 0.052 | 2.87 | > 100 |
| CN1CCN(CC(=O)N2C[C@H](F)C[C@H]2C(=O)N[C@@H](c2ccccc2)c2ccc(C3CC3)c(F)c2)C1=O [Compound 425, (2S,4R)-N-[(S)-(4-cyclopropyl-3-fluorophenyl)(phenyl)methyl]-4-fluoro-1-[2-(3-methyl-2-oxoimidazolidin-1-yl)acetyl]pyrrolidine-2-carboxamide] | 0.224 | 3.59 | > 100 |
| CC(C)c1ccc([C@@H](NC(=O)[C@@H]2C[C@@H](F)CN2C(=O)C(C)c2cnn[nH]2)c2ccccc2)cc1F (single isomer, unassigned) [Compound 769, (2S,4R)-4-fluoro-N-[(S)-[3-fluoro-4-(propan-2-yl)phenyl](phenyl)methyl]-1-[(2R) or (2S)-2-(1H-1,2,3-triazol-5-yl)propanoyl]pyrrolidine-2-carboxamide] | 0.022 | 0.29 | > 100 |
| CC(C)c1ccc([C@@H](NC(=O)[C@@H]2C[C@@H](F)CN2C(=O)Cn2cc(N3CCC3)nn2)c2ccccc2)nc1 [Compound 711, (2S,4R)-1-{2-[4-(azetidin-1-yl)-1H-1,2,3-triazol-1-yl]acetyl}-4-fluoro-N-[(S)-phenyl[5-(propan-2-yl)pyridin-2-yl]methyl]pyrrolidine-2-carboxamide] | 0.03 | 0.63 | > 100 |
| CC(C)c1ccc([C@@H](NC(=O)[C@@H]2C[C@@H](F)CN2C(=O)Cn2nnc(C(F)(F)F)n2)c2ccccc2)nc1 [Compound 255, (2S,4R)-4-fluoro-N-[(S)-phenyl[5-(propan-2-yl)pyridin-2-yl]methyl]-1-{2-[5-(trifluoromethyl)-2H-1,2,3,4-tetrazol-2-yl]acetyl}pyrrolidine-2-carboxamide] | 0.088 | 1.01 | > 100 |
| O=C(N[C@@H](c1ccccc1)c1ccc(C2CC2)c(F)n1)[C@@H]1[C@H]2C[C@H]2CN1C(=O)Cc1cnn[nH]1 [Compound 320, (1S,2S,5R)-N-[(S)-(5-cyclopropyl-6-fluoropyridin-2-yl)(phenyl)methyl]-3-[2-(1H-1,2,3-triazol-5-yl)acetyl]-3-azabicyclo[3.1.0]hexane-2-carboxamide] | 0.197 | 1.59 | > 100 |
| CC(C)c1ccc([C@@H](NC(=O)[C@@H]2C[C@@H](F)CN2C(=O)Cn2cc(N(C)C)nn2)c2ccccc2)cc1F [Compound 377, (2S,4R)-1-{2-[4-(dimethylamino)-1H-1,2,3-triazol-1-yl]acetyl}-4-fluoro-N-[(S)-[3-fluoro-4-(propan-2-yl)phenyl](phenyl)methyl] pyrrolidine-2-carboxamide] | 0.012 | 0.14 | > 100 |
| CCn1cc(NCC(=O)N2C[C@H](F)C[C@H]2C(=O)N[C@@H](c2ccccc2)c2ccc(C3CC3)c(F)c2)nn1 [Compound 469, (2S,4R)-N-[(S)-(4-cyclopropyl-3-fluorophenyl)(phenyl)methyl]-1-{2-[(1-ethyl-1H-1,2,3-triazol-4-yl)amino]acetyl}-4-fluoropyrrolidine-2-carboxamide] | 0.061 | 1.18 | > 100 |
| CC(C)(C)OC(=O)NCc1nnc(CC(=O)N2C[C@H](F)C[C@H]2C(=O)N[C@@H](c2ccccc2)c2ccc(C3CC3)c(F)c2)o1 [Compound 485, tert-butyl N-[(5-{2-[(2S,4R)-2-{[(S)-(4-cyclopropyl-3-fluorophenyl)(phenyl)methyl]carbamoyl}-4-fluoropyrrolidin-1-yl]-2-oxoethyl}-1,3,4-oxadiazol-2-yl)methyl]carbamate] | 0.21 | 3.72 | > 100 |
| CC(C)c1ccc([C@@H](NC(=O)[C@@H]2C[C@@H](F)CN2C(=O)Cc2[nH]nnc2N2CCNCC2)c2ccccc2)cc1F [Compound 369, (2S,4R)-4-fluoro-N-[(S)-[3-fluoro-4-(propan-2-yl)phenyl](phenyl)methyl]-1-{2-[4-(piperazin-1-yl)-1H-1,2,3-triazol-5-yl]acetyl}pyrrolidine-2-carboxamide] | 0.537 | > 30 | > 100 |
| CC(C)c1ccc([C@@H](NC(=O)[C@@H]2C[C@@H](F)CN2C(=O)Cc2n[nH]c(=O)n2C)c2ccccc2)nc1 [Compound 264, (2S,4R)-4-fluoro-1-[2-(4-methyl-5-oxo-4,5-dihydro-1H-1,2,4-triazol-3-yl)acetyl]-N-[(S)-phenyl[5-(propan-2-yl)pyridin-2-yl]methyl]pyrrolidine-2-carboxamide] | 0.13 | 4.29 | > 100 |
| O=C(N[C@@H](c1ccccc1)c1ccc(C2CC2)c(F)n1)[C@@H]1C[C@@H](F)CN1C(=O)Cn1ccc(=O)[nH]c1=O [Compound 727, (2S,4R)-N-[(S)-(5-cyclopropyl-6-fluoropyridin-2-yl)(phenyl)methyl]-1-[2-(2,4-dioxo-1,2,3,4-tetrahydropyrimidin-1-yl)acetyl]-4-fluoropyrrolidine-2-carboxamide] | 0.017 | 0.91 | > 100 |
| O=C(NC(c1ccccc1)c1ccc(C2CC2)cn1)[C@@H]1C[C@@H](F)CN1C(=O)Cc1cnn[nH]1 (single isomer, unassigned) [Compound 497, (2S,4R)-1-(2-(1H-1,2,3-triazol-5-yl)acetyl)-N—((S) or (R)-(5-cyclopropylpyridin-2-yl)(phenyl)methyl)-4-fluoropyrrolidine-2-carboxamide] | 0.369 | > 5.67 | > 100 |
| CC(C)c1ccc([C@@H](NC(=O)[C@@H]2C[C@@H](F)CN2C(=O)Cn2nncc2CN(C)C)c2ccccc2)cc1 [Compound 241, (2S,4R)-1-(2-{5-[(dimethylamino)methyl]-1H-1,2,3-triazol-1-yl}acetyl)-4-fluoro-N-[(S)-phenyl[4-(propan-2-yl)phenyl]methyl]pyrrolidine-2-carboxamide] | 0.082 | 1.14 | > 100 |
| CC1(c2ccc([C@@H](NC(=O)[C@@H]3C[C@@H](F)CN3C(=O)CN3CCN(CC(F)(F)F)CC3=O)c3ccccc3)cc2F)CC1 [Compound 580, (2S,4R)-4-fluoro-N-[(S)-[3-fluoro-4-(1-methylcyclopropyl)phenyl](phenyl)methyl]-1-{2-[2-oxo-4-(2,2,2-trifluoroethyl)piperazin-1-yl]acetyl}pyrrolidine-2-carboxamide] | 0.249 | 4.27 | > 100 |

— US11814367B2, “Inhibitors of glycogen synthase 1 (GYS1) and methods of use thereof” (Maze Therapeutics, Inc., priority 2021, dated 2023)
